Test results taken from PubChem BioAssay (NCI).
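Test compounds were applied to cells in 96-well plates for 48 hours at 5 doses. TGI is the concentration that stops growth completely.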

Experiments:
Test in all cases: growth of human tumour cells (NCI), 48 h
[1] = system: SF-268 CNS
[2] = system: COLO 205 colon
[3] = system: NCI-H226 lung
[4] = system: SK-MEL-5 melanoma
[5] = system: SF-295 CNS
[6] = system: OVCAR-5 ovarian
[7] = system: A549 NSCLC
[8] = system: KM12 colon
[9] = system: SF-539 CNS
[10] = system: EKVX NSCLC
[11] = system: OVCAR-8 ovarian
[12] = system: CCRF-CEM leukemia
[13] = system: NCI-H23 lung
[14] = system: SK-MEL-28 melanoma
[15] = system: NCI-H460 lung
[16] = system: HCT-116 colon
[17] = system: HCT-15 colon
[18] = system: NCI-H522 lung
[19] = system: ACHN renal
[20] = system: TK-10 renal

| Compound | TGI [1] [µM] | TGI [2] [µM] | TGI [3] [µM] | TGI [4] [µM] | TGI [5] [µM] | TGI [6] [µM] | TGI [7] [µM] | TGI [8] [µM] | TGI [9] [µM] | TGI [10] [µM] | TGI [11] [µM] | TGI [12] [µM] | TGI [13] [µM] | TGI [14] [µM] | TGI [15] [µM] | TGI [16] [µM] | TGI [17] [µM] | TGI [18] [µM] | TGI [19] [µM] | TGI [20] [µM] |
| --- | --- | --- | --- | --- | --- | --- | --- | --- | --- | --- | --- | --- | --- | --- | --- | --- | --- | --- | --- | --- |
| N=[N+]=CC(=O)CCC(NC(=O)C(CCC(=O)C=[N+]=N)NC(=O)CCC(N)C(=O)O)C(=O)O (centres undefined) | > 100 | > 100 | > 100 | > 100 | > 100 | > 100 | > 100 | > 31.6 | > 100 | > 100 | > 100 | > 100 | > 100 | > 100 | > 100 | > 100 | > 100 | > 100 | – | – |
| C1CSC(=[N+]2CC[N+](=C3SCCS3)CC2)S1 | > 100 | > 100 | – | > 100 | > 100 | > 100 | > 100 | > 100 | > 100 | > 100 | > 100 | > 100 | > 100 | > 100 | > 100 | > 100 | > 100 | > 100 | > 100 | > 100 |
| Cc1ccc(N=Nc2ccc(N)cc2C)c(S(N)(=O)=O)c1 | > 100 | > 100 | > 100 | > 100 | > 100 | > 100 | > 100 | > 100 | > 100 | > 100 | > 100 | > 100 | > 100 | > 100 | > 100 | > 100 | > 100 | > 100 | > 100 | > 100 |
| CC(C)(C)C(=O)CP(=O)(O)O | > 100 | > 100 | > 100 | > 100 | > 100 | > 100 | > 100 | > 100 | > 100 | > 100 | > 100 | > 100 | > 100 | > 100 | > 100 | > 100 | > 100 | > 100 | > 100 | > 100 |
| C[n+]1c2ccccc2c(NC(CS)C(=O)O)c2ccccc21 (centres undefined) | 70.2 | > 100 | > 100 | 44.6 | 77.7 | > 100 | 70.1 | 64.9 | 44 | > 100 | 61.2 | – | > 100 | – | > 100 | 30.7 | > 100 | 42.3 | > 100 | > 100 |
| C/C(=N\NC(=S)N1CCN(C)CC1)c1nc2ncccc2[nH]1 | > 100 | > 100 | > 100 | > 100 | > 100 | > 100 | > 100 | > 100 | > 100 | > 100 | > 100 | > 100 | > 100 | > 100 | > 100 | – | > 100 | > 100 | > 100 | > 100 |
| OC(c1cc(-c2ccc(Cl)cc2)nc2ccccc12)C1CCCCN1 (centres undefined) | 4.51 | 3.19 | 39 | 5.9 | 3.67 | 4.94 | 3.53 | 5.42 | 3.52 | 4.74 | 5.28 | 2.52 | 4.58 | 3.53 | 4.76 | 3.74 | 6.11 | 2.77 | 4.1 | 9.85 |
